Results published in ChEMBL document CHEMBL3108748, “Telomere maintenance as a target for drug discovery” (J Med Chem, 2014).
Blank lines part the entries; values can stand above or below the molecule they belong to.

Key:
[1] = molecular target: Telomerase reverse transcriptase (Rattus norvegicus, UniProt Q673L6); assay: Inhibition of rat telomerase by TRAP assay
[2] = molecular target: T1, Telomerase reverse transcriptase (Homo sapiens, UniProt O14746); assay: Inhibition of human telomerase activity after 8 mins by SYBR Green staining-based TRAP assay
T1 sequence (O14746 whole entry): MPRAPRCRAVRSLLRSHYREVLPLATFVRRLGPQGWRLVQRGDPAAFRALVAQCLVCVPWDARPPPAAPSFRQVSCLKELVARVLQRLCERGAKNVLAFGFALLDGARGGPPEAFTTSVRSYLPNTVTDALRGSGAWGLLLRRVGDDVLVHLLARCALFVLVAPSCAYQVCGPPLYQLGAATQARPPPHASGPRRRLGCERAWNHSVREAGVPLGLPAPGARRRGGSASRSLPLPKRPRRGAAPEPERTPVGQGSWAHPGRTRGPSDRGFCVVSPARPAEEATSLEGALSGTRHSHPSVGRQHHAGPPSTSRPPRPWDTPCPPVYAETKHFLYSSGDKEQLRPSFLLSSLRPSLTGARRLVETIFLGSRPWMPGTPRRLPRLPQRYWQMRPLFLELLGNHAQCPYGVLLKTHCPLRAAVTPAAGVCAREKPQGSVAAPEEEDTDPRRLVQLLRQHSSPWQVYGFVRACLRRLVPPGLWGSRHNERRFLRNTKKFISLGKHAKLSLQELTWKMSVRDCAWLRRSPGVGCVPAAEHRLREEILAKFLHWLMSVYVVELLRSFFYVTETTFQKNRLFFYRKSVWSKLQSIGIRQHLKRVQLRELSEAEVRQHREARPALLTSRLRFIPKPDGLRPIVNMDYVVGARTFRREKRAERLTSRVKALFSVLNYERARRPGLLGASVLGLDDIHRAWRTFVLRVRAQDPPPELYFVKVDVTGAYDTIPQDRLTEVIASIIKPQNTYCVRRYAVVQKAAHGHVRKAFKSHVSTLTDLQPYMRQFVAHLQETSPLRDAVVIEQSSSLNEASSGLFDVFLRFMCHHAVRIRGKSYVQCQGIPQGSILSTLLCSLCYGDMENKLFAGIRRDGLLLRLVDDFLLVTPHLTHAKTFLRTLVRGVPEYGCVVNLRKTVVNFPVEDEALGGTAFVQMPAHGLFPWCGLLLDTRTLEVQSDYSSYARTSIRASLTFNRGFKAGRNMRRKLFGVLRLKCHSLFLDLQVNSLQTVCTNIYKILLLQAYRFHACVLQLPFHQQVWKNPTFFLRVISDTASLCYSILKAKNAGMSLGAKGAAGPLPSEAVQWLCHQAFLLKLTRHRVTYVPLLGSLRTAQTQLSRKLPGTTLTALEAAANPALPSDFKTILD

[3] = molecular target: T1, Telomerase reverse transcriptase; assay: Inhibition of human telomerase activity in human Jurkat cells by TRAP assay; type: cell-based
[4] = molecular target: T1, Telomerase reverse transcriptase; assay: Inhibition of human telomerase activity by TRAP assay

Chain of Telomerase reverse transcriptase (Rattus norvegicus, UniProt Q673L6) (Q673L6 whole entry): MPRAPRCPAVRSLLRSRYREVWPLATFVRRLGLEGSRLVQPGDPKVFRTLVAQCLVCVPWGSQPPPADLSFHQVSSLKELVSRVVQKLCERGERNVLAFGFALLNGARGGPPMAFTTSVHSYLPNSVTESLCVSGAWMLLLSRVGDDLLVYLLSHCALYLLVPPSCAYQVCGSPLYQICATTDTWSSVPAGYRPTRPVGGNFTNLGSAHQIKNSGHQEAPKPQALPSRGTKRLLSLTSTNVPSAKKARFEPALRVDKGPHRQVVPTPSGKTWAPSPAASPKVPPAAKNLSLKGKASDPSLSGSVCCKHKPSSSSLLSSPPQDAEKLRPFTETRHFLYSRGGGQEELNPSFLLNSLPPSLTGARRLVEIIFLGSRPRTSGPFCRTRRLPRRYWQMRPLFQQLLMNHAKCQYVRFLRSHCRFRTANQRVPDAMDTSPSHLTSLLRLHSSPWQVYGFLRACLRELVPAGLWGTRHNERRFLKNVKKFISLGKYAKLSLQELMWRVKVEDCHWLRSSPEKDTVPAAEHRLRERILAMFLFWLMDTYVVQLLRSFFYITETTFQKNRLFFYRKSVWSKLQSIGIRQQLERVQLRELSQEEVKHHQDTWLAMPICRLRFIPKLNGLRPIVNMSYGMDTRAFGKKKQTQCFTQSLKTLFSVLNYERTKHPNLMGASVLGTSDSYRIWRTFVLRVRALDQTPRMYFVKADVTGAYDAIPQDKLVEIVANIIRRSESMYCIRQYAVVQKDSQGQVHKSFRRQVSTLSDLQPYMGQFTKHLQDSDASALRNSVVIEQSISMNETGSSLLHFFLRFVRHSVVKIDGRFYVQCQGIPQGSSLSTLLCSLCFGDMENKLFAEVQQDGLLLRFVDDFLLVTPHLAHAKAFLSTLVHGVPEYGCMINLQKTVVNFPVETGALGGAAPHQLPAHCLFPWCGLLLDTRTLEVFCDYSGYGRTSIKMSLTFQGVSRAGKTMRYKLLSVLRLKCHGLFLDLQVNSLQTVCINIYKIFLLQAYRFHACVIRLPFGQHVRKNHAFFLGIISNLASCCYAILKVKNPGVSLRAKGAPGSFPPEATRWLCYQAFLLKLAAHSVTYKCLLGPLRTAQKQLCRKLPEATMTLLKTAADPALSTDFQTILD

- IC50 [1]: 1000 nM
Structure (SMILES): O=c1ccsn1-c1cccc(C(F)(F)F)c1

- IC50 [2]: 400 nM
Structure (SMILES): O=[N+]([O-])/C=C/c1cccc(Oc2cc(Cl)cc(Cl)c2)c1

Structure (SMILES): COc1ccc2c(c1)CC[C@@H]1[C@@H]2CC[C@]2(C)[C@@H](NCCCCCCN3C(=O)C=CC3=O)CC[C@@H]12
- IC50 [3]: 200 nM

- IC50 [4]: 1000 nM
Structure (SMILES): N=C(N)Nc1nc(-c2cc(Cl)sc2Cl)cs1
